Source: the NIST ThermoML archive (doi:10.1021/je020110g)
± gives the expanded uncertainty stated by the source.

Tests used:
[1] = Liquid
[2] = excess molar enthalpy (molar enthalpy of mixing); xn = mol fraction of the nth substance listed; conditions: 298.15 K, 101.3 kPa, Liquid, Flow calorimetry

Compound | vapor or sublimation pressure ([1]; 278.15 K) [kPa] | vapor or sublimation pressure ([1]; 283.15 K) [kPa] | vapor or sublimation pressure ([1]; 288.15 K) [kPa] | vapor or sublimation pressure ([1]; 293.15 K) [kPa] | vapor or sublimation pressure ([1]; 298.15 K) [kPa] | vapor or sublimation pressure ([1]; 303.15 K) [kPa] | vapor or sublimation pressure ([1]; 308.15 K) [kPa] | vapor or sublimation pressure ([1]; 313.15 K) [kPa] | vapor or sublimation pressure ([1]; 318.15 K) [kPa] | vapor or sublimation pressure ([1]; 323.15 K) [kPa] | also measured
CCCCBr [1-bromobutane] | 1.86 ± 0.014 | 2.48 ± 0.015 | 3.265 ± 0.016 | 4.261 ± 0.017 | 5.506 ± 0.018 | 7.039 ± 0.02 | 8.899 ± 0.023 | 11.15 ± 0.026 | 13.87 ± 0.03 | 17.09 ± 0.035 | –
CCCCBr [1-bromobutane] + CCC(C)O | – | – | – | – | – | – | – | – | – | – | excess molar enthalpy ([2]; x2 = 0.0424): 0.124 ± 0.00263 kcal/mol; excess molar enthalpy ([2]; x2 = 0.0948): 0.221 ± 0.00478 kcal/mol; excess molar enthalpy ([2]; x2 = 0.1942): 0.306 ± 0.00645 kcal/mol; excess molar enthalpy ([2]; x2 = 0.2951): 0.35 ± 0.00741 kcal/mol; excess molar enthalpy ([2]; x2 = 0.3482): 0.363 ± 0.00765 kcal/mol; excess molar enthalpy ([2]; x2 = 0.3973): 0.369 ± 0.00789 kcal/mol; excess molar enthalpy ([2]; x2 = 0.4492): 0.366 ± 0.00789 kcal/mol; excess molar enthalpy ([2]; x2 = 0.5006): 0.36 ± 0.00765 kcal/mol; excess molar enthalpy ([2]; x2 = 0.6015): 0.333 ± 0.00717 kcal/mol; excess molar enthalpy ([2]; x2 = 0.7035): 0.285 ± 0.00621 kcal/mol; excess molar enthalpy ([2]; x2 = 0.8062): 0.212 ± 0.00454 kcal/mol; excess molar enthalpy ([2]; x2 = 0.9066): 0.117 ± 0.00263 kcal/mol; excess molar enthalpy ([2]; x2 = 0.959): 0.0588 ± 0.00143 kcal/mol
CC(C)CO [2-methyl-1-propanol] | 0.335 ± 0.011 | 0.505 ± 0.011 | 0.739 ± 0.012 | 1.057 ± 0.013 | 1.501 ± 0.014 | 2.133 ± 0.014 | 2.956 ± 0.015 | 4.026 ± 0.016 | 5.444 ± 0.018 | 7.237 ± 0.02 | –
CCC(C)O (stereo unspecified) [butan-2-ol] | 0.519 ± 0.011 | 0.78 ± 0.012 | 1.137 ± 0.013 | 1.648 ± 0.014 | 2.324 ± 0.014 | 3.256 ± 0.016 | 4.462 ± 0.017 | 6.048 ± 0.019 | 8.105 ± 0.022 | 10.71 ± 0.025 | –
CCCCBr [1-bromobutane] + CC(C)CO | – | – | – | – | – | – | – | – | – | – | excess molar enthalpy ([2]; x2 = 0.0421): 0.127 ± 0.00287 kcal/mol; excess molar enthalpy ([2]; x2 = 0.0942): 0.203 ± 0.0043 kcal/mol; excess molar enthalpy ([2]; x2 = 0.1932): 0.269 ± 0.00574 kcal/mol; excess molar enthalpy ([2]; x2 = 0.2938): 0.298 ± 0.00645 kcal/mol; excess molar enthalpy ([2]; x2 = 0.3468): 0.304 ± 0.00645 kcal/mol; excess molar enthalpy ([2]; x2 = 0.3957): 0.304 ± 0.00645 kcal/mol; excess molar enthalpy ([2]; x2 = 0.4476): 0.298 ± 0.00645 kcal/mol; excess molar enthalpy ([2]; x2 = 0.499): 0.288 ± 0.00621 kcal/mol; excess molar enthalpy ([2]; x2 = 0.6): 0.258 ± 0.0055 kcal/mol; excess molar enthalpy ([2]; x2 = 0.7021): 0.213 ± 0.00454 kcal/mol; excess molar enthalpy ([2]; x2 = 0.8052): 0.152 ± 0.00335 kcal/mol; excess molar enthalpy ([2]; x2 = 0.906): 0.0789 ± 0.00167 kcal/mol; excess molar enthalpy ([2]; x2 = 0.9587): 0.038 ± 0.000956 kcal/mol
